Test systems include ACHN renal; BT-549 breast; CCRF-CEM leukemia; HCT-15 colon; HL-60(TB) leukemia; MDA-MB-435; MOLT-4 leukemia; SK-OV-3 ovarian; SNB-19 CNS; HT29 colon; MALME-3M melanoma; UO-31 renal; NCI-H226 lung.
Holding throughout (assay): growth of human tumour cells (NCI), 48 h

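All cell lines were grown in 96-well plates and treated with compound for 48 hours. Definition used: TGI = concentration required for complete inhibition of growth.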

Consider `N#Cc1c(-c2ccc(Cl)cc2)c(C#N)c(=O)n(NS(=O)(=O)c2ccccc2)c1-c1ccccc1`, for which the TGI with ACHN renal, in the assay on BT-549 breast, in the assay on CCRF-CEM leukemia, in the assay with HCT-15 colon, in the assay on HL-60(TB) leukemia and with MDA-MB-435 was greater than 25 µM each time. The TGI in the assay on MOLT-4 leukemia, in the assay with SK-OV-3 ovarian and with SNB-19 CNS was greater than 25 µM each time.

As for `COC(=O)CCCCC/C(=C\C(=O)C(Cl)(Cl)Cl)OC`, the TGI with ACHN renal is greater than 100 µM; in the assay on BT-549 breast, greater than 100 µM; in the assay on CCRF-CEM leukemia it was greater than 100 µM; with HCT-15 colon it was 68.2 µM; in the assay on HL-60(TB) leukemia, 47.6 µM; in the assay with HT29 colon, 72.6 µM. The TGI is 65.2 µM in the assay on MALME-3M melanoma; 64.7 µM in the assay with MDA-MB-435; 60.1 µM in the assay on MOLT-4 leukemia; greater than 100 µM in the assay with SK-OV-3 ovarian; greater than 100 µM with SNB-19 CNS; greater than 100 µM with UO-31 renal.

With `O=C(/C=C/c1ccc(O)c(O)c1)OCCOC(=O)/C=C/c1ccc(O)c(O)c1`, the TGI was 85.8 µM with ACHN renal; greater than 100 µM in the assay on BT-549 breast; greater than 100 µM with CCRF-CEM leukemia; greater than 100 µM in the assay with HCT-15 colon; 43.4 µM with HT29 colon; greater than 100 µM with MALME-3M melanoma. Also, the TGI in the assay with MDA-MB-435 was 98 µM; in the assay with MOLT-4 leukemia, 44.9 µM; with NCI-H226 lung, 96.3 µM; in the assay with SK-OV-3 ovarian, 55.5 µM; in the assay on SNB-19 CNS, greater than 100 µM; in the assay on UO-31 renal, 47.5 µM.

In the case of `CC1(C)CCc2c(c(N=Nc3ccccc3)c3ccccc3c2O)O1`, the TGI in the assay on ACHN renal is 33.5 µM; in the assay on BT-549 breast, greater than 100 µM; with CCRF-CEM leukemia, greater than 100 µM; in the assay on HCT-15 colon, greater than 100 µM; in the assay on HL-60(TB) leukemia, greater than 100 µM; with HT29 colon, 34 µM. Also, the TGI with MALME-3M melanoma was greater than 100 µM; in the assay on MDA-MB-435, 83.5 µM; with MOLT-4 leukemia it was greater than 100 µM; in the assay on NCI-H226 lung, greater than 100 µM; in the assay on SK-OV-3 ovarian, 50.3 µM; in the assay on SNB-19 CNS, greater than 100 µM. In addition, the TGI in the assay on UO-31 renal came to 60.3 µM.

Consider `Cc1[nH]c2ccccc2c1C=Nc1ccc(Oc2ccccc2)cc1`, for which the TGI in the assay with ACHN renal came to 30.8 µM; with BT-549 breast, 35.5 µM; in the assay with CCRF-CEM leukemia it was 28.9 µM; in the assay with HCT-15 colon it was 35 µM; in the assay with HL-60(TB) leukemia it was 32.3 µM; with HT29 colon, 31.3 µM. The TGI in the assay with MALME-3M melanoma was 34.6 µM; in the assay with MDA-MB-435, 31.8 µM; in the assay on MOLT-4 leukemia, 35.7 µM; in the assay with SK-OV-3 ovarian, 32 µM; in the assay with SNB-19 CNS, 33.1 µM; in the assay with UO-31 renal, 24.4 µM.

With `COc1nc(=O)n(C2CC(N=[N+]=[N-])C(CO)O2)cc1C` (stereo not given), the TGI in the assay with ACHN renal, in the assay on BT-549 breast, in the assay on CCRF-CEM leukemia, in the assay with HCT-15 colon, with HL-60(TB) leukemia and with HT29 colon was greater than 100 µM each time. The TGI with MALME-3M melanoma, with MDA-MB-435, with MOLT-4 leukemia, with NCI-H226 lung, in the assay with SNB-19 CNS and in the assay with UO-31 renal was greater than 100 µM throughout.

As to `NC(=O)N(O)c1cccc(Br)c1`, the TGI in the assay with ACHN renal, with BT-549 breast, in the assay with CCRF-CEM leukemia, in the assay with HCT-15 colon, in the assay with HL-60(TB) leukemia and in the assay with HT29 colon was greater than 100 µM in each case. In addition, the TGI in the assay with MDA-MB-435, in the assay on MOLT-4 leukemia, in the assay on NCI-H226 lung, in the assay on SK-OV-3 ovarian, with SNB-19 CNS and in the assay with UO-31 renal was greater than 100 µM throughout.

For `Cc1nc2c(-c3ccccc3)[nH]c(C)c2c(=O)o1`, the TGI with ACHN renal, with BT-549 breast, with CCRF-CEM leukemia, in the assay with HCT-15 colon, in the assay with HL-60(TB) leukemia and with HT29 colon was greater than 100 µM throughout. The TGI in the assay on MDA-MB-435, in the assay on MOLT-4 leukemia, in the assay with NCI-H226 lung, in the assay with SK-OV-3 ovarian, with SNB-19 CNS and with UO-31 renal was greater than 100 µM each time.

Turning to `CC(=O)c1cn(-c2ccc(Cl)cc2)c(=O)c2c(N)n[nH]c12`, the TGI in the assay on ACHN renal, in the assay on BT-549 breast, in the assay on CCRF-CEM leukemia, in the assay with HCT-15 colon, in the assay with HL-60(TB) leukemia and in the assay with HT29 colon was greater than 100 µM each time. The TGI with MDA-MB-435, with MOLT-4 leukemia, in the assay on NCI-H226 lung, in the assay on SK-OV-3 ovarian, with SNB-19 CNS and in the assay on UO-31 renal was greater than 100 µM in each case.

Regarding `CC(C)(C)OC(=O)NC(Cc1ccc([N+](=O)[O-])cc1)C(=O)NC(CCCCNC(=O)OCc1ccccc1)C(=O)ON1C(=O)CCC1=O` (stereo not given), the TGI in the assay with ACHN renal, with BT-549 breast, with HCT-15 colon, in the assay on HL-60(TB) leukemia, with HT29 colon and in the assay on MALME-3M melanoma was greater than 100 µM in each case. Also, the TGI in the assay on MDA-MB-435, in the assay with MOLT-4 leukemia, in the assay on NCI-H226 lung, in the assay on SK-OV-3 ovarian, with SNB-19 CNS and in the assay with UO-31 renal was greater than 100 µM throughout.

Consider `CC1=C(C(=O)OC(C)C)C(c2ccccc2[N+](=O)[O-])C(C(=O)OC(CO[N+](=O)[O-])CO[N+](=O)[O-])=C(C)N1` (stereo not given), for which the TGI with ACHN renal is 23.7 µM; in the assay on BT-549 breast, 26 µM; in the assay on HCT-15 colon it was 16.2 µM; with HL-60(TB) leukemia, greater than 100 µM; in the assay with HT29 colon, 7.98 µM; in the assay on MALME-3M melanoma, 23.6 µM. In addition, the TGI came to 13.2 µM in the assay with MDA-MB-435; 5.9 µM with MOLT-4 leukemia; 28.5 µM with NCI-H226 lung; 12.6 µM in the assay on SK-OV-3 ovarian; 23.8 µM in the assay with SNB-19 CNS; 16.2 µM in the assay with UO-31 renal.

Values taken from PubChem BioAssay (NCI).
